According to patent publication US20070081948A1, “Dry powder composition comprising a benzodiazepine for pulmonary inhalation” (Vectura Limited, priority 2003, published 2007):

Assay: Emitted 6.8 micron particle fraction from vortex chamber versus ratio of chamber diameter to exit port diameter
Assay type: physicochemical
Conditions: for Normalised average particle fraction <6.8 μm (%): emitted fraction divided by fraction of the loaded powder
Source text: The normalised average 6.8 micron particle fraction is the emitted 6.8 micron particle fraction divided by the 6.8 micron particle fraction of the powdered medicament loaded into the inhaler. The medicament used was pure Intal™ sodium cromoglycate (Fisons UK).

Question: With `O=C(O)c1cc(=O)c2c(OCC(O)COc3cccc4oc(C(=O)O)cc(=O)c34)cccc2o1` [sodium cromoglycate] as the compound, how does the “Average particle fraction <6.8 μm (%)” value (Ratio D/De 2.0) read?
Answer: The value was 64.7%.

Question: And the “Normalised average particle fraction <6.8 μm (%)” value (Ratio D/De 2.0)?
Answer: Its value is 73.1%.

Question: And the “Average particle fraction <6.8 μm (%)” value (Ratio D/De 3.1)?
Answer: The value was 70.8%.

Question: And the “Normalised average particle fraction <6.8 μm (%)” value (Ratio D/De 3.1)?
Answer: The value was 79.9%.

Question: What about the “Average particle fraction <6.8 μm (%)” value (Ratio D/De 4.0) of the same compound?
Answer: Its value is 75.5%.

Question: What about the “Normalised average particle fraction <6.8 μm (%)” value (Ratio D/De 4.0) of the same compound?
Answer: The value was 85.2%.

Question: What about the “Average particle fraction <6.8 μm (%)” value (Ratio D/De 6.0) of the same compound?
Answer: Its value is 81.0%.

Question: What about the “Normalised average particle fraction <6.8 μm (%)” value (Ratio D/De 6.0) of the same compound?
Answer: Its value is 91.4%.

Question: And the “Average particle fraction <6.8 μm (%)” value (Ratio D/De 7.1)?
Answer: The value was 83.5%.

Question: What about the “Normalised average particle fraction <6.8 μm (%)” value (Ratio D/De 7.1) of the same compound?
Answer: Its value is 94.3%.

Question: And the “Average particle fraction <6.8 μm (%)” value (Ratio D/De 8.0)?
Answer: The value was 83.2%.

Question: What about the “Normalised average particle fraction <6.8 μm (%)” value (Ratio D/De 8.0) of the same compound?
Answer: Its value is 93.9%.

Question: What about the “Average particle fraction <6.8 μm (%)” value (Ratio D/De 8.6) of the same compound?
Answer: Its value is 80.6%.

Question: And the “Normalised average particle fraction <6.8 μm (%)” value (Ratio D/De 8.6)?
Answer: The value was 91.0%.
